# Assays:
# [1] = background statement, cited from earlier work; for umami taste: aspartic acid at concentrations comparable to MSG
# [2] = Flavourist comparison of test white sauce with reference white sauce; format: in vivo; conditions: 4 flavourists
# Description: A white sauce mix was prepared from 380 g of modified starch Prejel, 200 g of whey powder Esprion 300, 200 g of fat powder (ex DMV), 115 g of sodium chloride, 85.3 g of maltodextrin 14, 3 g of onion powder, 0.2 g of curcuma extract powder (ex turmeric), 1.5 g of white pepper and 15 g of probase high impact.
# 80 g of the well-mixed ingredients was added to 1 L of boiling water and stirred well.
# [3] = Flavourist tasting: enhancement effect on NaCl, MSG and ribonucleotides; format: in vivo; conditions: effect marked between 0 and 10
# Description: Six solutions were prepared: • A a solution of 0.5% NaCl • B a solution of 0.5% NaCl and 0.03% MSG • C a solution of 0.5% NaCl and 0.015% ribonucleotides • D a solution of 0.5% NaCl and 10-50 ppm Example 1 compound • E a solution of 0.5% NaCl and 0.03% MSG and 10-50 ppm Example 1 compound • F a solution of 0.5% NaCl and 0.015% ribonucleotides and 10-50 ppm Example 1 compound The samples were tasted by a group of 5-10 flavourists aged between 30 and 60. The taste of solution D is compared with that of A to determine the enhancement effect of Example 1 compound on NaCl. Similarly, solution E is compared with solution B and solution F with solution C to determine the enhancement effect of Example 1 compound on MSG and ribonucleotides respectively. The effect is marked between 0 and 10, the greater the value the greater the effect.
# [4] = Flavourist tasting: umami and salt intensity of solution B versus reference solution A; format: in vivo; conditions: scale -3 (much lower than base) to 3 (much higher), average of 4 flavourists
# Source text: The samples were tasted by a small group of flavourists (2 male, 2 female, aged between 30 and 60). The intensity of the umami and salt taste of solution B was compared with that of the reference (solution A) and rated according to the following intensity scale: […]
# [5] = Flavourist comparison of test Béchamel sauce with cheese with reference sauce; format: in vivo; conditions: 4 flavourists
# Description: A Béchamel sauce with cheese was prepared from 70 g of butter, 50 g of flower, 1000 g of milk, 5 g of sodium chloride, 0.3 g of MSG, 0.15 g of nutmeg powder, 0.25 g of black pepper and 80 g of cheese powder. A blanc roux was prepared from the butter and flower before adding the other ingredients.
# [6] = Flavourist comparison of test bouillon with reference bouillon; format: in vivo; conditions: 200 ppm in bouillon; 4 flavourists
# Description: A bouillon mix was prepared from 155.0 g of sodium chloride, 157.0 g of dextrose monohydrate (ex Tapioca), 0.2 g of celery oleoresin, 0.3 g of oleoresin turmeric Vegex, 0.2 g of oleoresin coriander seed, 444.8 g maltodextrin 5-8 DE, 40.0 g vegetable oil soya bean refined, 30.0 g yeast standard light, 4.0 g of onion powder, 4.0 g of garlic powder, 0.5 g of white pepper and 164.0 g of potato starch.
# 32 g of the well-mixed ingredients was added to 1 L of boiling water and stirred until completely dissolved.
# [7] = 10 ppm in 0.5% NaCl and 0.03% MSG
# [8] = 20 ppm in 0.5% NaCl and 0.03% MSG
structure (smiles),measurement,setting,value
"N[C@@H](CCC(=O)O)C(=O)[O-].[Na+] [MSG, monosodium glutamate]",umami taste,[1],highly potent umami tastant
[Cl-].[K+] [Potassium chloride],taste of salts compared with sodium chloride,[1],somewhat salty but clearly more bitter
"NC(CC(O)C(=O)O)C(=O)O (centres unmarked) [4-hydroxyglutamic acid, 4-hydroxyglutamic Acid]",taste of test white sauce compared with reference white sauce,[2]; 300 ppm in white sauce,had an enhanced body of salt and was more salivating and umami-like than the reference white sauce
same,NaCl Taste,"[3]; 50 ppm in 0.5% NaCl (solution D versus A, reference 0.0)",1.7
same,Ribo taste,"[3]; 50 ppm in 0.5% NaCl and 0.015% ribonucleotides (solution F versus C, reference 5.0)",7.0
same,MSG taste,"[3]; 50 ppm in 0.5% NaCl and 0.03% MSG (solution E versus B, reference 5.0)",5.7
same,Intensity Taste Salt (NaCl),[4]; [7],0.50
same,Intensity Taste Umami,[4]; [7],0.50
same,taste of test Béchamel sauce with cheese compared with reference,[5]; 400 ppm in Béchamel sauce with cheese,"had more body, more mouthfullness and was creamier than the reference Béchamel sauce"
same,taste of test bouillon compared with reference bouillon,[6],had an enhanced body of salt and was more salivating and more savoury-lingering than the reference bouillon
O=C([O-])[C@H](O)[C@@H](O)[C@H](O)[C@H](O)CO.[Na+] [sodium gluconate],taste of salts compared with sodium chloride,[1],hardly any taste
"CC(CC(N)C(=O)O)C(=O)O (centres unmarked) [2-amino-4-methylpentanedioic acid, 2-amino-4-methylpentanedioic Acid]",Intensity Taste Salt (NaCl),[4]; [8],1.00
same,Intensity Taste Umami,[4]; [8],1.25
[Cl][Pb][Cl] [Lead chloride],taste of salts compared with sodium chloride,[1],tasting sweet
CC(=O)[O-].[Na+] [Sodium acetate],taste of salts compared with sodium chloride,[1],hardly any taste
N[C@@H](CC(=O)O)C(=O)O [aspartic acid],umami taste,[1],hardly any umami taste
"NC(CC(C(=O)O)C(=O)O)C(=O)O (racemic) [gamma-carboxy-DL-glutamic acid, Gamma-Carboxy-DL-Glutamic Acid]",taste of test white sauce compared with reference white sauce,[2]; 250 ppm in white sauce,"more umami, more metallic, fuller, more long-lasting and slightly more salivating than the reference white sauce"
same,NaCl Taste,"[3]; 10 ppm in 0.5% NaCl (solution D versus A, reference 0.0)",2.0
same,Ribo taste,"[3]; 10 ppm in 0.5% NaCl and 0.015% ribonucleotides (solution F versus C, reference 5.0)",5.5
same,MSG taste,"[3]; 10 ppm in 0.5% NaCl and 0.03% MSG (solution E versus B, reference 5.0)",5.5
same,Intensity Taste Salt (NaCl),[4]; [7],0.67
same,Intensity Taste Umami,[4]; [7],0.67
same,taste of test Béchamel sauce with cheese compared with reference,[5]; 350 ppm in Béchamel sauce with cheese,"more metallic, more ionic, more long-lasting and had more salivating effect than the reference Béchamel sauce"
same,taste of test bouillon compared with reference bouillon,[6],"more umami, slightly more bitter, had more an ionic effect and salivating aftertaste than the reference bouillon"
"Cl.NC(CC(C(=O)O)c1ccccc1)C(=O)O (centres unmarked) [2-amino-4-phenylpentanedioic acid, HCl, 2-amino-4-phenylpentanedioic Acid, HCl]",Intensity Taste Salt (NaCl),[4]; [7],0.67
same,Intensity Taste Umami,[4]; [7],0.00
